# Reference: BindingDB's records for doi:10.1021/jm970389+ (Abbott Laboratories, 1998)
# Experiment: Binding potency against Platelet activating factor (PAF) receptor using [3H]C18-PAF as radioligand on rabbit platelet membranes
row,Compound,Ki
1,"Cc1nc2cnccc2n1Cc1ccc(C(=O)c2cn(C(=O)N(C)C)c3cccc(C(=O)N(C)C)c23)cc1 [3-[4-(2-Methyl-imidazo[4,5-c]pyridin-1-ylmethyl)-benzoyl]-indole-1,4-dicarboxylic acid bis-dimethylamide]",11 nM
2,"Cc1nc2cnccc2n1Cc1ccc(C(=O)c2cn(C(=O)N(C)C)c3ccccc23)cc1 [3-[4-(2-Methyl-imidazo[4,5-c]pyridin-1-ylmethyl)-benzoyl]-indole-1-carboxylic acid dimethylamide]",6.8 nM
3,"COC(=O)c1cccc2c1c(C(=O)c1ccc(Cn3c(C)nc4c(Cl)nccc43)cc1)cn2C(=O)N(C)C [3-[4-(4-Chloro-2-methyl-imidazo[4,5-c]pyridin-1-ylmethyl)-benzoyl]-1-dimethylcarbamoyl-1H-indole-4-carboxylic acid methyl ester]",1.8 nM
4,"Cc1nc2cnccc2n1CCCCCC(=O)c1cn(C(=O)N(C)C)c2cccc(-c3ccc(F)cc3)c12 [4-(4-Fluoro-phenyl)-3-[6-(2-methyl-imidazo[4,5-c]pyridin-1-yl)-hexanoyl]-indole-1-carboxylic acid dimethylamide]",3.2 nM
5,"Cc1nc2cnccc2n1Cc1ccc(C(=O)c2cn(C(=O)N(C)C)c3cccc(NC(=O)c4ccccc4)c23)cc1 [4-Benzoylamino-3-[4-(2-methyl-imidazo[4,5-c]pyridin-1-ylmethyl)-benzoyl]-indole-1-carboxylic acid dimethylamide]",2 nM
6,"Cc1nc2cnccc2n1Cc1ccc(C(=O)c2cn(C(=O)N(C)C)c3cccc(Br)c23)cc1 [4-Bromo-3-[4-(2-methyl-imidazo[4,5-c]pyridin-1-ylmethyl)-benzoyl]-indole-1-carboxylic acid dimethylamide]",11 nM
7,"Cc1nc2ncccc2n1Cc1ccc(C(=O)c2cn(C(=O)N(C)C)c3cccc(Cl)c23)cc1 [4-Chloro-3-[4-(2-methyl-imidazo[4,5-b]pyridin-1-ylmethyl)-benzoyl]-indole-1-carboxylic acid dimethylamide]",0.9 nM
8,"Cc1nc2cnccc2n1Cc1ccc(C(=O)c2cn(C(=O)N(C)C)c3cccc(Cl)c23)cc1 [4-Chloro-3-[4-(2-methyl-imidazo[4,5-c]pyridin-1-ylmethyl)-benzoyl]-indole-1-carboxylic acid dimethylamide]",5.4 nM
9,"CCc1cccc2c1c(C(=O)c1ccc(Cn3c(C)nc4cnccc43)cc1)cn2C(=O)N(C)C [4-Ethyl-3-[4-(2-methyl-imidazo[4,5-c]pyridin-1-ylmethyl)-benzoyl]-indole-1-carboxylic acid dimethylamide]",0.91 nM
10,"C#Cc1cccc2c1c(C(=O)c1ccc(Cn3c(C)nc4cnccc43)c(F)c1)cn2C(=O)NC [4-Ethynyl-3-[3-fluoro-4-(2-methyl-imidazo[4,5-c]pyridin-1-ylmethyl)-benzoyl]-indole-1-carboxylic acid methylamide]",0.63 nM
11,"C#Cc1cccc2c1c(C(=O)c1ccc(Cn3c(C)nc4cnccc43)cc1)cn2C(=O)N(C)C [4-Ethynyl-3-[4-(2-methyl-imidazo[4,5-c]pyridin-1-ylmethyl)-benzoyl]-indole-1-carboxylic acid dimethylamide]",1.3 nM
12,"C#Cc1cccc2c1c(C(O)c1ccc(Cn3c(C)nc4cnccc43)c(F)c1)cn2C(=O)N(C)C (centres undefined) [4-Ethynyl-3-{[3-fluoro-4-(2-methyl-imidazo[4,5-c]pyridin-1-ylmethyl)-phenyl]-hydroxy-methyl}-indole-1-carboxylic acid dimethylamide]",1.5 nM
13,"Cc1nc2cnccc2n1Cc1ccc(C(=O)c2cn(C(=O)N(C)C)c3cccc(F)c23)cc1 [4-Fluoro-3-[4-(2-methyl-imidazo[4,5-c]pyridin-1-ylmethyl)-benzoyl]-indole-1-carboxylic acid dimethylamide]",5.1 nM
14,"Cc1nc2cnccc2n1Cc1ccc(C(=O)c2cn(C(=O)N(C)C)c3cccc(O)c23)cc1 [4-Hydroxy-3-[4-(2-methyl-imidazo[4,5-c]pyridin-1-ylmethyl)-benzoyl]-indole-1-carboxylic acid dimethylamide]",6.1 nM
15,"COC(=O)c1[nH]c2cccc(OC)c2c1C(=O)c1ccc(Cn2c(C)nc3cnccc32)cc1 [4-Methoxy-3-[4-(2-methyl-imidazo[4,5-c]pyridin-1-ylmethyl)-benzoyl]-1H-indole-2-carboxylic acid methyl ester]",0.51 nM
16,"COc1cccc2c1c(C(=O)c1ccc(Cn3c(C)nc4cnccc43)cc1)cn2C(=O)N(C)C [4-Methoxy-3-[4-(2-methyl-imidazo[4,5-c]pyridin-1-ylmethyl)-benzoyl]-indole-1-carboxylic acid dimethylamide]",2 nM
17,"Cc1cccc2c1c(C(=O)c1ccc(Cn3c(C)nc4cnccc43)cc1)cn2C(=O)N(C)C [4-Methyl-3-[4-(2-methyl-imidazo[4,5-c]pyridin-1-ylmethyl)-benzoyl]-indole-1-carboxylic acid dimethylamide]",0.82 nM

row,Compound,Ki
1,"Cc1cccc2c1c(C(=O)CN1CCC(n3c(C)nc4cnccc43)CC1)cn2C(=O)N(C)C [4-Methyl-3-{2-[4-(2-methyl-imidazo[4,5-c]pyridin-1-yl)-piperidin-1-yl]-acetyl}-indole-1-carboxylic acid dimethylamide]",2 nM
2,"Cc1nc2cnccc2n1Cc1ccc(C(=O)c2cn(C(=O)N(C)C)c3ccc(-c4ccc(F)cc4)cc23)cc1 [5-(4-Fluoro-phenyl)-3-[4-(2-methyl-imidazo[4,5-c]pyridin-1-ylmethyl)-benzoyl]-indole-1-carboxylic acid dimethylamide]",190 nM
3,"Cc1nc2cnccc2n1CCCN(C)CC(=O)c1cn(C(=O)N(C)C)c2cc(-c3ccc(F)cc3)ccc12 [6-(4-Fluoro-phenyl)-3-(2-{methyl-[3-(2-methyl-imidazo[4,5-c]pyridin-1-yl)-propyl]-amino}-acetyl)-indole-1-carboxylic acid dimethylamide]",140 nM
4,"Cc1nc2cnccc2n1CC(=O)c1cn(C(=O)N(C)C)c2cc(-c3ccc(F)cc3)ccc12 [6-(4-Fluoro-phenyl)-3-[2-(2-methyl-imidazo[4,5-c]pyridin-1-yl)-acetyl]-indole-1-carboxylic acid dimethylamide]",> 1000 nM
5,"Cc1nc2cnccc2n1Cc1cccc(C(=O)c2cn(C(=O)N(C)C)c3cc(-c4ccc(F)cc4)ccc23)c1 [6-(4-Fluoro-phenyl)-3-[3-(2-methyl-imidazo[4,5-c]pyridin-1-ylmethyl)-benzoyl]-indole-1-carboxylic acid dimethylamide]",180 nM
6,"Cc1nc2cnccc2n1-c1ccc(C(=O)c2cn(C(=O)N(C)C)c3cc(-c4ccc(F)cc4)ccc23)cc1 [6-(4-Fluoro-phenyl)-3-[4-(2-methyl-imidazo[4,5-c]pyridin-1-yl)-benzoyl]-indole-1-carboxylic acid dimethylamide]",260 nM
7,"Cc1nc2cnccc2n1C1CCN(C(=O)c2cn(C(=O)N(C)C)c3cc(-c4ccc(F)cc4)ccc23)CC1 [6-(4-Fluoro-phenyl)-3-[4-(2-methyl-imidazo[4,5-c]pyridin-1-yl)-piperidine-1-carbonyl]-indole-1-carboxylic acid dimethylamide]",3.4 nM
8,"Cc1nc2cnccc2n1CN1CCN(S(=O)(=O)c2cn(C(=O)N(C)C)c3cc(-c4ccc(F)cc4)ccc23)CC1 [6-(4-Fluoro-phenyl)-3-[4-(2-methyl-imidazo[4,5-c]pyridin-1-ylmethyl)-piperazine-1-sulfonyl]-indole-1-carboxylic acid dimethylamide]",1.2 nM
9,"Cc1nc2cnccc2n1CC1CCN(C(=O)c2cn(C(=O)N(C)C)c3cc(-c4ccc(F)cc4)ccc23)CC1 [6-(4-Fluoro-phenyl)-3-[4-(2-methyl-imidazo[4,5-c]pyridin-1-ylmethyl)-piperidine-1-carbonyl]-indole-1-carboxylic acid dimethylamide]",2.5 nM
10,"Cc1nc2cnccc2n1Cc1csc(C(=O)c2cn(C(=O)N(C)C)c3cc(-c4ccc(F)cc4)ccc23)n1 [6-(4-Fluoro-phenyl)-3-[4-(2-methyl-imidazo[4,5-c]pyridin-1-ylmethyl)-thiazole-2-carbonyl]-indole-1-carboxylic acid dimethylamide]",39 nM
11,"Cc1nc2ccncc2n1Cc1ccc(C(=O)c2cn(C(=O)N(C)C)c3cc(-c4ccc(F)cc4)ccc23)cc1 [6-(4-Fluoro-phenyl)-3-[4-(2-methyl-imidazo[4,5-c]pyridin-3-ylmethyl)-benzoyl]-indole-1-carboxylic acid dimethylamide]",610 nM
12,"Cc1nc2ccn(Cc3ccc(C(=O)c4cn(C(=O)N(C)C)c5cc(-c6ccc(F)cc6)ccc45)cc3)cc-2n1 [6-(4-Fluoro-phenyl)-3-[4-(2-methyl-imidazo[4,5-c]pyridin-5-ylmethyl)-benzoyl]-indole-1-carboxylic acid dimethylamide]",> 1000 nM
13,"Cc1nc2cnccc2n1CCN1CCN(S(=O)(=O)c2cn(C(=O)N(C)C)c3cc(-c4ccc(F)cc4)ccc23)CC1 [6-(4-Fluoro-phenyl)-3-{4-[2-(2-methyl-imidazo[4,5-c]pyridin-1-yl)-ethyl]-piperazine-1-sulfonyl}-indole-1-carboxylic acid dimethylamide]",53 nM
14,"COC(=O)c1cc(Br)cc2c1c(C(=O)c1ccc(Cn3c(C)nc4cnccc43)cc1)cn2C(=O)N(C)C [6-Bromo-1-dimethylcarbamoyl-3-[4-(2-methyl-imidazo[4,5-c]pyridin-1-ylmethyl)-benzoyl]-1H-indole-4-carboxylic acid methyl ester]",1.4 nM
15,"C#Cc1cccc2[nH]cc(C(=O)c3ccc(Cn4c(C)nc5cnccc54)c(F)c3)c12 [(4-Ethynyl-1H-indol-3-yl)-[3-fluoro-4-(2-methyl-imidazo[4,5-c]pyridin-1-ylmethyl)-phenyl]-methanone]",2.2 nM
16,"Cc1nc2cnccc2n1Cc1ccc(C(=O)c2c[nH]c3c(OCc4ccccc4)cccc23)cc1 [(7-Benzyloxy-1H-indol-3-yl)-[4-(2-methyl-imidazo[4,5-c]pyridin-1-ylmethyl)-phenyl]-methanone]",12 nM
17,"Cc1nc2cnccc2n1Cc1ccc(C(=O)c2cn(C(=O)N(C)C)c3cccc(OC(=O)N(C)C)c23)cc1F [Dimethyl-carbamic acid 1-dimethylcarbamoyl-3-[3-fluoro-4-(2-methyl-imidazo[4,5-c]pyridin-1-ylmethyl)-benzoyl]-1H-indol-4-yl ester]",31 nM
